Reference: article PMC12305494, “Discovery of PXR Antagonist MI891 and PXR Degrader MI1013 and Their Roles in Hepatic Gene Regulation” (Journal of Medicinal Chemistry, 2025)

What was measured:
PXR [1] = target: T1, PXR (Homo sapiens, UniProt O75469); assay: cell-based; conditions: PXR antagonism: PXR inhibition (IC50, μM), antagonist mode with 10 μM rifampicin; mean ± SD, n = 3
T1 sequence (O75469 1-434): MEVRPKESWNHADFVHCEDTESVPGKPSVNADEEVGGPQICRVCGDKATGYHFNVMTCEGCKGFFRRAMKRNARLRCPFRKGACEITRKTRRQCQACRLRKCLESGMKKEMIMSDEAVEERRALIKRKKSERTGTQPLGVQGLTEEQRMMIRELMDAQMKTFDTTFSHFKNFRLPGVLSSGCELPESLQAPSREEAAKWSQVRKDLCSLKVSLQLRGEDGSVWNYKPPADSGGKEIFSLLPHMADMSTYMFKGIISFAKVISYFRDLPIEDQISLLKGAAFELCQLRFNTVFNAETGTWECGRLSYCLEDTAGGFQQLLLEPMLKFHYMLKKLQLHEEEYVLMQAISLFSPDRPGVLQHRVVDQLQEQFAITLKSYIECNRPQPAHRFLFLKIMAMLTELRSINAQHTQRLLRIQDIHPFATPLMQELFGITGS
Method: The PXR activity was assessed as the PXR-dependent transcriptional activation using the construct. […] The control vector pRL-TK (Promega) constitutively expresses Renilla luciferase. […] Transient transfection experiments followed published protocols used in our laboratory and described before. , Luciferase reporter assays were conducted to evaluate interactions with PXR or CAR and their variants in HepG2, or COS-1. Cells were seeded at a density of 40,000 cells/cm^2 in 48-well plates (ThermoFisher Scientific) and maintained at 37 °C in a humidified atmosphere with 5% CO2. […] Following seeding, HepG2 cells were transfected with 150 ng/well of a luciferase reporter construct and 100 ng/well of a nuclear receptor expression vector using Lipofectamine 3000 (ThermoFisher Scientific) and with pRL-TK (30 ng/well) serving as the normalization control. After 24 h, cells were treated with test compounds for 24 h before cell lysis and subsequent firefly and Renilla luciferase activity analysis using the Dual-Glo Luciferase Assay System (Promega). […] The activities of test compounds were normalized to the respective controls to determine % activation or inhibition.

human CAR LBD [2] = target: T2, human CAR LBD (Homo sapiens, UniProt Q14994); assay: CAR LBD assembly assay (CAR AA); assay type: cell-based; conditions: na = no activity; tox = cytotoxicity in HepG2 cells
T2 construct: constructs encoding helices 3–12 and helix 1 of human CAR LBD; expressed in transfected cells; host or cells: HepG2
T2 sequence (Q14994 103-150 isoform Q14994-2 limits assumed): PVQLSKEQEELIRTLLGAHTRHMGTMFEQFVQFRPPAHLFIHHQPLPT
T2 sequence (Q14994 151-348 isoform Q14994-2 limits assumed): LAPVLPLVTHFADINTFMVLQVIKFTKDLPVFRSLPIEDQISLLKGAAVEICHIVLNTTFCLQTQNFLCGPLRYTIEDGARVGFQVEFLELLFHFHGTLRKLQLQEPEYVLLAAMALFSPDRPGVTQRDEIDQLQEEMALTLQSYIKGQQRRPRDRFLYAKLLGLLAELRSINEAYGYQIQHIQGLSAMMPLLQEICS
Description: The CAR LBD assembly assay used constructs encoding helices 3–12 and helix 1 of human CAR LBD as described before. GL4.31[luc2P/GAL4UAS/Hygro] (pGAL4 UAS-luc) luciferase reporter vector and pRL-TK Renilla expression vector (Promega) were used in the assay in HepG2 cells transfected using Lipofectamine 3000.

human CAR LBD [3] = target: T3, human CAR LBD (Homo sapiens, UniProt Q14994); assay: LanthaScreen TR-FRET CAR Coactivator assay; assay type: biochemical; conditions: nb = no binding
T3 sequence (Q14994 103-352): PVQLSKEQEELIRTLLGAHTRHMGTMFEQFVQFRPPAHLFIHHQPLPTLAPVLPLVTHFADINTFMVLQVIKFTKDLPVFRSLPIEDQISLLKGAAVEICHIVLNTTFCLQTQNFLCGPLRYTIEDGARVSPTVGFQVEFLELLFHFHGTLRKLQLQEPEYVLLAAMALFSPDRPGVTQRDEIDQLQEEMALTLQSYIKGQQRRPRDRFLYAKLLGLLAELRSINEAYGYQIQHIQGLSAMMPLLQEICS
Method: We utilized the LanthaScreen TR-FRET CAR Coactivator Binding Assay Kit, goat (Thermo Fisher Scientific, Cat. No. PV4836), which includes GST-tagged human CAR LBD and a fluorescein-labeled PGC1α coactivator peptide. The assay was performed with slight modifications to the manufacturer’s protocol, as previously reported. […] The interaction with the PXR ligand-binding domain (LBD) was assessed using the LanthaScreen TR-FRET PXR Competitive Binding Assay (Thermo Fisher Scientific, PV4839), as previously described. This assay quantifies the ability of test compounds to displace a fluorescent PXR ligand from the receptor. Fluorescence readings were taken on a Synergy 2 Multi-Mode Microplate Reader (BioTek, Winooski, VT). The half-maximal inhibitory concentration (IC50) for PXR LBD was calculated from at least eight data points using GraphPad Prism software.

PXR [4] = target: T4, PXR (Homo sapiens, UniProt O75469+Q96SW2); assay: Western blot of PXR in differentiated HepaRG cells; assay type: cell-based; conditions: 24 h
T4 construct: differentiated hepatic HepaRG cells, which naturally express high PXR activity and expression; endogenous in cells; host or cells: differentiated HepaRG
Method: The harvested HepaRG cells were lysed in RIPA lysis buffer (Cat. no 89900, Thermo Scientific) containing Halt protease inhibitor cocktail inhibitors (Thermo Scientific). Protein concentration was measured using the Pierce BCA Protein Assay Kit (Cat. no. 23225, Thermo Scientific), samples were diluted in 4 × Laemmli sample buffer (Cat. no. 1610747, BioRad) supplemented with mercaptoethanol and heated at 95 °C for 5 min. Equal amounts of protein were loaded in 4–20% Mini-PROTEAN TGX Stain-Free Protein Gels (12 well. cat. no. 4561095 or 15 well, cat. no. 4568096, Bio-Rad), electrophorised, and transferred onto Trans-Blot Turbo Midi-size PVDF Membrane (cat. no. 1704273, Bio-Rad), and blocked with EveryBlot Blocking buffer for 10 min (cat. no. 12010020, Bio-Rad). The membranes were incubated overnight at 4 °C with the following antibodies: PXR polyclonal antibody (1:500, PA5–41170, Invitrogen), RXRA polyclonal antibody (1:1000, 21218–1-AP, Proteintech), and GSPT1 polyclonal antibody (1:1000, 10763-a-AP, Proteintech), washed with TBS-T for 3 times, and followed by incubation with goat antirabbit IgG (H + L) Secondary antibody, HRP (1:200, 000, 1 h, cat. no. 31460, Invitrogen). Chemiluminescence signals were detected using SuperSignal West Femto Maximum Sensitivity Substrate (cat. no. 34096, Thermo Scientific) and visualized by the ChemiDoc MP Imaging system (Universal Hood III, #731BR02821, Bio-Rad), and the bands were quantified using β-actin (1:2000, recombinant rabbit conjugated monoclonal antibody (JF53-10), cat. no. MA5-32540, Invitrogen) as loading control with ImageJ (version 1.54g) software.

[5] = Plasma stability, mouse plasma; assay type: in vitro ADME; conditions: up to 120 min, read-out: Plasma stability, t1/2 (min), mouse
Method: The protocols and reagents for the plasma protein binding assay and metabolic stability testing in human and mouse liver microsomes are detailed in our previous report. Briefly, metabolic stability of compounds was assessed at a single concentration (5 μM) at t = 0, 10, 30, and at t = 45 min. The stability of compounds was tested in human and mouse microsomes (ThermoFisher Scientific). Compounds were tested in triplicate with or without NADPH wells as a negative control for cytochrome P450 metabolism. In addition to hepatic metabolism, compounds were also subjected to degradation/modification by enzymes in human (VWR International) and mouse (Biomedica, CZ) plasma for t = 0, 30, 60, and at t = 120 min. Each assay included a substrate with known activity as a positive control. Time points were analyzed by LC/MS/MS. The peak area for the parent compound is compared to the time zero sample in order to assess the amount of remaining compound.

PXR [6] = target: T1, PXR; assay: PXR-responsive CYP3A4 promoter luciferase reporter assay in HepG2, inverse agonist mode (basal activity); assay type: cell-based; parameters: expressed in transfected cells; host or cells: HepG2; conditions: tested at 10 μM, DMSO (0.1%) = 100% basal activity
Method: Rhesus monkey, mouse, and rat PXR expression vectors (100 ng/well each) were also obtained from GenScript. […] Carlberg (University of Kuopio, Kuopio, Finland).
The cells were cultured in DMEM medium (Merck) supplemented with 10% fetal bovine serum.

T4 sequence (Q96SW2 whole entry, one chain of several): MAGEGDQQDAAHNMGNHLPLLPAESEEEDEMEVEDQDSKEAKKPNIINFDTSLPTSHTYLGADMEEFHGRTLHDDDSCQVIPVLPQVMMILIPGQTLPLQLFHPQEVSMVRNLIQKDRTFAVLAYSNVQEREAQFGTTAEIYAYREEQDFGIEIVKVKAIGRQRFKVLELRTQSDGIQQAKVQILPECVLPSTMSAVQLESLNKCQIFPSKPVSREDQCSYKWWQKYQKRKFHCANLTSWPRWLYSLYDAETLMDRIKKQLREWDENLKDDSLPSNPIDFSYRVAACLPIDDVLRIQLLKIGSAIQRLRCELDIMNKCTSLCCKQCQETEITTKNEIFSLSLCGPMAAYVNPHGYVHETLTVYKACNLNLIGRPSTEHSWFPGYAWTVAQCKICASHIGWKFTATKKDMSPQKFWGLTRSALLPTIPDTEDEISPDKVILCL

Molecule	IC50 (PXR [1])	EC50 (human CAR LBD [2])	further results
CC(c1ccc(Cl)c(C(N)=O)c1)n1cc(-c2c(-c3ccc(Cl)cc3)nc3ccccn23)nn1 (centres unmarked) [Compound 2, 2-Chloro-5-(1-(4-(2-(4-chlorophenyl)imidazo[1,2-a]pyridin-3-yl)-1H-1,2,3-triazol-1-yl)ethyl)benzamide]	25.4 ± 3.5 µM	5.3 ± 0.3 µM	EC50 (human CAR LBD [3]): > 5 µM
N-(4-((1-(2,5-Dimethoxyphenyl)-5-methyl-1H-1,2,3-triazol-4-yl)sulfonyl)phenyl)-3-(2-(2-(4-(((2-(2,6-dioxopiperidin-3-yl)-1,3-dioxoisoindolin-4-yl)amino)methyl)-1H-1,2,3-triazol-1-yl)ethoxy)ethoxy)propenamide [Compound 35]	–	–	PXR degradation (Western blot) (PXR [4]): no effect on PXR degradation
COc1ccc(OC)c(-n2nnc(S(=O)(=O)c3ccc(NC(=O)CCOCCOCCOCCOCCn4cc(CNc5cccc6c5C(=O)N(C5CCC(=O)NC5=O)C6=O)nn4)cc3)c2C)c1 (centres unmarked) [Compound 37, N-(4-((1-(2,5-dimethoxyphenyl)-5-methyl-1H-1,2,3-triazol-4-yl)sulfonyl)phenyl)-1-(4-(((2-(2,6-dioxopiperidin-3-yl)-1,3-dioxoisoindolin-4-yl)amino)methyl)-1H-1,2,3-triazol-1-yl)-3,6,9,12-tetraoxapentadecan-15-amide]	–	–	PXR degradation (Western blot) (PXR [4]): mild effect on PXR degradation
CNC(=O)c1cc(Cn2cc(-c3c(-c4ccc(Cl)cc4)nc4c(F)cc(F)cn34)nn2)ccc1Cl [Compound 12, 2-Chloro-5-((4-(2-(4-chlorophenyl)-6,8-difluoroimidazo[1,2-a]pyridin-3-yl)-1H-1,2,3-triazol-1-yl)methyl)-N-methylbenzamide]	8.04 ± 2.3 µM	–	CAR TR-FRET (EC50, μM) (human CAR LBD [3]): nb
NC(=O)c1cc(Cn2cc(-c3c(-c4ccc(C5CC5)cc4)nc4ccccn34)nn2)ccc1Cl [Compound 4, 2-Chloro-5-((4-(2-(4-cyclopropylphenyl)imidazo[1,2-a]pyridin-3-yl)-1H-1,2,3-triazol-1-yl)methyl)benzamide]	5.76 ± 2.6 µM	> 20 µM	CAR TR-FRET (EC50, μM) (human CAR LBD [3]): nb
CN(C)C(=O)c1cc(Cc2nnc(-c3c(-c4ccc(Cl)cc4)nc4ccccn34)s2)ccc1Cl [Compound 7, 2-Chloro-5-((5-(2-(4-chlorophenyl)imidazo[1,2-a]pyridin-3-yl)-1,3,4-thiadiazol-2-yl)methyl)-N,N-dimethylbenzamide]	4.94 ± 0.9 µM	0.5 ± 0.01 µM	–
CC(C)[N+](C)(CCOC(=O)C1c2ccccc2Oc2ccccc21)C(C)C [Propantheline, reference compound]	–	–	half-life [5]: 28 ± 1 min
CNC(=O)c1cc(Cc2nnc(-c3c(-c4ccc(Cl)cc4)nc4ccccn34)o2)ccc1Cl [Compound 5, 2-Chloro-5-((5-(2-(4-chlorophenyl)imidazo[1,2-a]pyridin-3-yl)-1,3,4-oxadiazol-2-yl)methyl)-N-methylbenzamide]	> 100 µM	1.02 ± 0.2 µM	EC50 (human CAR LBD [3]): 0.401 µM
NC(=O)c1cc(Cn2cc(-c3c(-c4ccncc4)nc4ccccn34)nn2)ccc1Cl [Compound 3, 2-Chloro-5-((4-(2-(pyridine-4-yl)imidazo[1,2-a]pyridine-3-yl)-1H-1,2,3-triazol-1-yl)methyl)benzamide]	> 100 µM	–	CAR TR-FRET (EC50, μM) (human CAR LBD [3]): nb
NC(=O)c1cc(Cn2cc(-c3c(-c4ccc(Cl)cc4)nc4cc(F)ccn34)nn2)ccc1Cl [Compound 9, 2-Chloro-5-((4-(2-(4-chlorophenyl)-7-fluoroimidazo[1,2-a]pyridin-3-yl)-1H-1,2,3-triazol-1-yl)methyl)benzamide]	–	–	PXR inverse agonism: decrease of basal activity in % (PXR [6]): (-72.03±0.3) %; PXR inverse agonism: decrease of basal activity in % (PXR [6]; listed as 9 (MI-883)): –72.03 ± 0.3%
CNC(=S)c1cc(Cc2nnc(-c3c(-c4ccc(Cl)cc4)nc4ccccn34)o2)ccc1Cl [Compound 6, 2-Chloro-5-((5-(2-(4-chlorophenyl)imidazo[1,2-a]pyridin-3-yl)-1,3,4-oxadiazol-2-yl)methyl)-N-methylbenzothioamide]	> 100 µM	0.99 ± 0.15 µM	EC50 (human CAR LBD [3]): 0.162 µM
